System: subjects with moderate-to-severe plaque psoriasis
Assay: PASI response, Example 1 16-week dose-ranging study
Assay type: in vivo, human
Protocol: The Psoriasis Area and Severity Index (PASI) is a system used for assessing and grading the severity of psoriatic lesions and their response to therapy. In the PASI system, the body is divided into four regions: the head, trunk, upper extremities, and lower extremities. Each of these areas is assessed and scored separately for erythema, induration, and scaling, which are each rated on a scale of 0 to 4 and extent of involvement on a scale of 0 to 6. The PASI produces a numeric score (a “PASI score”) that can range from 0 to 72. A higher score indicates more severe disease.
This was a randomized, double-blind, placebo-controlled, dose-ranging, parallel group, multicenter, interventional study in subjects with moderate-to-severe plaque psoriasis. A target of 240 subjects were enrolled in this study with 40 subjects planned per intervention group.
Clinician-reported outcomes including Psoriasis Area and Severity Index (PASI), Body Surface Area (BSA), Investigator's Global Assessment (IGA), Nail Psoriasis Area and Severity Index (NAPSI), Fingernail Physician's Global Assessment (f-PGA), Static Physician's Global Assessment of Genitalia (s-PGA-G), Physician's Global Assessment of Hands and/or Feet (hf-PGA), and Scalp Specific Investigator Global Assessment (ss-IGA) were obtained at Week 0, 8, and 16. PASI and IGA were also obtained at Weeks 1, 2, 4, and 12, and at Week 20, four weeks after the administration of the tablets has stopped.
The primary efficacy endpoint was the proportion of participants achieving a PASI 75 response at Week 16, defined as at least a 75% reduction from baseline in PASI total score.
For the primary analysis, composite strategy (non-responder imputation) was applied to address intercurrent event #1 (Discontinuation of study intervention due to lack of efficacy or due to an AE of worsening of psoriasis) and #2 (initiation of a protocol-prohibited medication or therapy that could improve psoriasis); and treatment policy strategy (observed data) was applied to intercurrent event #3 (Discontinuation of study intervention due to other reasons). Participants with missing data after application of ICEs are also considered as non-responders.
In addition to the response analysis, pairwise comparisons of each treatment group versus the placebo group were performed for the primary endpoint of PASI 75 at Week 16. Pairwise comparisons were not adjusted for multiplicity. The Cochran-Mantel-Haenszel chi-square statistic stratified by baseline weight category (≤90 kg, >90 kg) at a 2-sided significance level of 0.05 was used (Table 2).

[1] = 100 mg BID, Week 16, trough plasma conc Q1 to <Q2
[2] = 100 mg BID, Week 16, trough plasma conc Q2 to <Q3
[3] = 100 mg BID, Week 16, trough plasma conc ≥Q3
[4] = 100 mg QD, Week 16, peak plasma conc. <Q1, N=2
[5] = 100 mg QD, Week 16, peak plasma conc. Q1 to <Q2, N=2
[6] = 100 mg QD, Week 16, peak plasma conc. Q2 to <Q3, N=2
[7] = 100 mg QD, Week 16, peak plasma conc. ≥Q3, N=2
[8] = 100 mg QD, Week 16, trough plasma conc <Q1
[9] = 100 mg QD, Week 16, trough plasma conc Q1 to <Q2
[10] = 100 mg QD, Week 16, trough plasma conc Q2 to <Q3
[11] = 100 mg QD, Week 16, trough plasma conc ≥Q3
[12] = Combined doses, Week 16, peak plasma conc. <Q1, N=10
[13] = Combined doses, Week 16, peak plasma conc. Q1 to <Q2, N=11
[14] = Combined doses, Week 16, peak plasma conc. Q2 to <Q3, N=10
[15] = Combined doses, Week 16, peak plasma conc. ≥Q3, N=11
[16] = Combined doses, Week 16, trough plasma conc <Q1
[17] = Combined doses, Week 16, trough plasma conc Q1 to <Q2

## CC(=O)NCCCC[C@@H]1NC(=O)[C@H](Cc2c[nH]c3c(C)cccc23)NC(=O)[C@H]([C@@H](C)O)NC(=O)[C@H](CC(N)=O)NC(=O)[C@@H](NC(C)=O)C(C)(C)SSC(C)(C)[C@@H](C(=O)N[C@@H](Cc2ccc(OCCN)cc2)C(=O)N[C@@H](Cc2ccc3ccccc3c2)C(=O)NC2(C(=O)N[C@@H](CCC(=O)O)C(=O)N[C@@H](CC(N)=O)C(=O)N[C@@H](Cc3cccnc3)C(=O)N(C)CC(N)=O)CCOCC2)NC1=O [IL-23 receptor antagonist peptide, Ac-[Pen]*-N-T-[W(7-Me)]-[Lys(Ac)]-[Pen]*-Phe[4-(2-aminoethoxy)]-[2-Nal]-[THP]-E-N-[3-Pal]-Sarc-NH2 (*[Pen]-[Pen]* formdisulfidebond)]
[1]
  PASI 100% Improvement, subjects: 2 (40.0%)
  PASI ≥75% Improvement, subjects: 4 (80.0%)
  PASI ≥90% Improvement, subjects: 3 (60.0%)
[2]
  PASI 100% Improvement, subjects: 2 (40.0%)
  PASI ≥75% Improvement, subjects: 5 (100.0%)
  PASI ≥90% Improvement, subjects: 3 (60.0%)
[3]
  PASI 100% Improvement, subjects: 2 (40.0%)
  PASI ≥75% Improvement, subjects: 4 (80.0%)
  PASI ≥90% Improvement, subjects: 4 (80.0%)
100 mg QD, Week 4
  Subjects achieving PASI 75: 16.3%
100 mg QD, Week 16
  PASI 75 treatment difference vs placebo: 55.8%
  PASI 90 treatment difference vs placebo: 44.2% (28.6%,
  PASI 100 treatment difference vs placebo: 23.3% (10.7%,
  Subjects achieving PASI 90: 20 (46.5%)
  Subjects achieving PASI 100: 10 (23.3%)
100 mg QD, Week 16, N=43
  PASI 75, %: 65.1%
  PASI 90, %: 46.5%
  PASI 100, %: 23.3%
[4]
  PASI 100% Improvement, n subjects: 0
  PASI ≥75% Improvement, % subjects: (100.0%)
  PASI ≥75% Improvement, n subjects: 2
  PASI ≥90% Improvement, % subjects: (50.0%)
  PASI ≥90% Improvement, n subjects: 1
[5]
  PASI 100% Improvement, % subjects: (50.0%)
  PASI 100% Improvement, n subjects: 1
  PASI ≥75% Improvement, % subjects: (100.0%)
  PASI ≥75% Improvement, n subjects: 2
  PASI ≥90% Improvement, % subjects: (50.0%)
  PASI ≥90% Improvement, n subjects: 1
[6]
  PASI 100% Improvement, n subjects: 0
  PASI ≥75% Improvement, % subjects: (50.0%)
  PASI ≥75% Improvement, n subjects: 1
  PASI ≥90% Improvement, % subjects: (50.0%)
  PASI ≥90% Improvement, n subjects: 1
[7]
  PASI 100% Improvement, n subjects: 0
  PASI ≥75% Improvement, n subjects: 1
  PASI ≥90% Improvement, % subjects: (50.0%)
  PASI ≥90% Improvement, n subjects: 1
[8]
  PASI 100% Improvement, subjects: 2 (40.0%)
  PASI ≥75% Improvement, subjects: 3 (60.0%)
  PASI ≥90% Improvement, subjects: 3 (60.0%)
[9]
  PASI 100% Improvement, subjects: 0
  PASI ≥75% Improvement, subjects: 3 (60.0%)
  PASI ≥90% Improvement, subjects: 3 (60.0%)
[10]
  PASI 100% Improvement, subjects: 1 (20.0%)
  PASI ≥75% Improvement, subjects: 3 (60.0%)
  PASI ≥90% Improvement, subjects: 2 (40.0%)
[11]
  PASI 100% Improvement, subjects: 1 (20.0%)
  PASI ≥75% Improvement, subjects: 3 (60.0%)
  PASI ≥90% Improvement, subjects: 2 (40.0%)
[12]
  PASI 100% Improvement, n subjects: 0
  PASI ≥75% Improvement, n subjects: 4
  PASI ≥90% Improvement, % subjects: (30.0%)
  PASI ≥90% Improvement, n subjects: 3
[13]
  PASI 100% Improvement, % subjects: (18.2%)
  PASI 100% Improvement, n subjects: 2
  PASI ≥75% Improvement, n subjects: 10
  PASI ≥90% Improvement, % subjects: (63.6%)
  PASI ≥90% Improvement, n subjects: 7
[14]
  PASI 100% Improvement, % subjects: (10.0%)
  PASI 100% Improvement, n subjects: 1
  PASI ≥75% Improvement, n subjects: 7
  PASI ≥90% Improvement, % subjects: (60.0%)
  PASI ≥90% Improvement, n subjects: 6
[15]
  PASI 100% Improvement, % subjects: (36.4%)
  PASI 100% Improvement, n subjects: 4
  PASI ≥75% Improvement, n subjects: 8
  PASI ≥90% Improvement, % subjects: (63.6%)
  PASI ≥90% Improvement, n subjects: 7
[16]
  PASI 100% Improvement, subjects: 7 (26.9%)
  PASI ≥75% Improvement, subjects: 13 (50.0%)
  PASI ≥90% Improvement, subjects: 11 (42.3%)
[17]
  PASI 100% Improvement, subjects: 4 (15.4%)
  PASI ≥75% Improvement, subjects: 12 (46.2%)
  PASI ≥90% Improvement, subjects: 7 (26.9%)

— patent publication US20260232767A1, “INTERLEUKIN-23 RECEPTOR ANTAGONIST PEPTIDES FOR USE IN THE TREATMENT OF PSORIASIS” (Janssen Pharmaceutica NV, priority 2023, published 2026)
